Measured values reported in US9115149B2, “Heterocyclic compounds as inhibitors of fatty acid biosysnthesis for bacterial infections” (Vitas Pharma Research Private Limited, priority 2011, dated 2015).
Values after ≈ are worked out from the molar mass of the structure shown. Read-outs that look alike come from different tables or passages of the source.

Assays:
[1] = test system: Staphylococcus aureus (ATCC29213); assay: MIC by microbroth dilution, methicillin sensitive S. aureus; type: cell-based; details: read-out: Minimum inhibitory concentration (MIC) Staphylococcus aureus (ATCC29213)
Description: (§1) Shown below are the biological activities of representative compounds of the invention. The compounds were tested by the microbroth dilution method (National committee for Clinical Laboratory Standards, M07-A8, Volume 29, 2009) to determine the Minimum Inhibitory Concentration (MIC) against Methicillin sensitive and resistant Staphylococcus aureus. The MICs in the presence of 10% BSA was also tested. Further, select compounds were tested for metabolic stability using mouse liver microsomes based on published protocols (Journal of Biological Sciences, 2008, 8, 1110-1114).

[2] = test system: Methicillin resistant Staphylococcus aureus (ATCC 33591); assay: MIC by microbroth dilution, methicillin resistant S. aureus; type: cell-based; details: ATCC33591, read-out: Minimum inhibitory concentration (MIC) Methicillin resistant Staphylococcus aureus (ATCC 33591)
Description: as §1

[3] = test system: Methicillin resistant Staphylococcus aureus (ATCC 33591); assay: MIC in the presence of BSA; type: cell-based; details: ATCC33591, 10% BSA
Description: as §1

[4] = Metabolic stability in mouse liver microsomes; type: in vitro ADME
Description: as §1

[5] = Mutation prevention concentration; type: cell-based
Description: The mutation prevention concentration or the concentration above which mutants are unlikely to be selected, was determined based on published protocols (Antimicrobial Agents and Chemotherapy, 45, 433-438, 2001).

[6] = test system: Bacillus subtilis (ΔFabI, ΔFabL; Pxylose SaFabI); assay: Target specificity: MIC in B. subtilis expressing S. aureus FabI under xylose inducible promoter; type: cell-based
Description: To test for target specificity, the MIC was determined in a Bacillus subtilis strain in which the two FabI homologues (FabI and FabL) were deleted and replaced with S. aureus FabI (Sa FabI) under a Xylose inducible promoter. By varying the amount of xylose in the growth medium, the expression of FabI was proportionately modified. Compounds specifically targeting Sa FabI show an increased MIC when higher amounts of FabI are present in the cell (high Xylose concentrations). In contrast, when FabI levels are low, the cell becomes hypersusceptible, reducing the MIC (low Xylose concentrations). […] Shown below are data for target specificity.

E. coli ATCC 25922 = assay: MIC against non-S. aureus strains; type: cell-based
Description: (§2) A subset of compounds was tested against non-S. aureus strains to determine the Minimum Inhibitory Concentration (MIC) against non-S. aureus species (National committee for Clinical Laboratory Standards, M07-A8, Volume 29, 2009).

E. feacalis ATCC 29212 = assay: MIC against non-S. aureus strains; type: cell-based
Description: as §2

H. influenzae ATCC 49247 = assay: MIC against non-S. aureus strains; type: cell-based
Description: as §2

M. catarrhalis ATCC 8176 = assay: MIC against non-S. aureus strains; type: cell-based
Description: as §2

[7] = test system: S. epidermidis ATCC 12228; assay: MIC against non-S. aureus strains; type: cell-based
Description: as §2

[8] = test system: S. haemolyticus ATCC 29970; assay: MIC against non-S. aureus strains; type: cell-based
Description: as §2

S. pneumoniae ATCC 6301 = assay: MIC against non-S. aureus strains; type: cell-based
Description: as §2

[9] = Pharmacokinetic profile in male Swiss albino mice; details: mouse, in vivo; for AUC / Cmax / clearance / half-life: intravenous single dose 5 mg/kg body weight; for bioavailability: po
Description: The following compounds were dosed to male Swiss albino mice to determine the pharmacokinetic profiles.

MRSA ATCC33591 = assay: Systemic infection model in mice; type: in vivo
Description: In order to evaluate the in vivo efficacy of the scaffold, we tested representative compounds for activity in the systemic infection model in mice (Antimicrobial Agents and Chemotherapy, 47, 2507-2512, 2003). In this model, a 15× medial lethal dose of the bacteria (MRSA ATCC33591) was administered to mice intraperitoneally. 1 hour later, VT-02-00068 was administered i.v. at doses of 30, 10 and 3 mg/kg body weight. The compound was administered again 4 hours later. A total of 5 doses were administered, i.e. 2 doses on day 0, 2 on day 1 and 1 on day 2. […] The survival was 100, 100 and 65% at 30, 10 and 3 mg/kg body weight respectively.
VT-02-00044 was tested using the same protocol. The compound was dosed at 50 mg/kg body weight for 3 days, 2 doses per day.

[10] = read-out: MIC in the presence of 0.005% Xylose (low Xylose concentration)
[11] = read-out: MIC in the presence of 0.5% Xylose (high Xylose concentration)

| SMILES | MIC [1] | MIC [2] | MIC [3] | Metabolic stability (mouse liver microsomes) % of compound remaining after 30 minutes [4] | MIC [6, 10] | MIC [6, 11] | AUC [9] | Cmax [9] | clearance [9] | half-life [9] | bioavailability [9] | also measured |
| --- | --- | --- | --- | --- | --- | --- | --- | --- | --- | --- | --- | --- |
| Cc1c(CN(C)C(=O)/C=C/c2cnc3c(c2)C(C)(C)C(=O)N3)oc2ccccc12 [VT-02-00068, (E)-3-(3,3-dimethyl-2-oxo-2,3-dihydro-1H-pyrrolo[2,3-b]pyridin-5-yl)-N-methyl-N-((3-methylbenzofuran-2-yl)methyl)acrylamide] | 15 ng/mL (≈ 0.0385 µM) | 15 ng/mL (≈ 0.0385 µM) | 500 ng/mL | 21% | < 0.06 ng/mL | 15 ng/mL | 10.3 µg·h/mL | 7.85 µg/mL | 0.47 L/h/kg | 1.82 h | 56.1% | Mutation prevention concentration [5]: 0.5 ug/ml μg/ml; MIC E. coli ATCC 25922 (E. coli ATCC 25922): > 16000 ng/mL; MIC E. feacalis ATCC 29212 (E. feacalis ATCC 29212): > 16000 ng/mL; MIC H. influenzae ATCC 49247 (H. influenzae ATCC 49247): > 16000 ng/mL; MIC M. catarrhalis ATCC 8176 (M. catarrhalis ATCC 8176): > 16000 ng/mL; MIC S. epidermidis ATCC 12228 [7]: 30 ng/mL (≈ 0.077 µM); MIC S. haemolyticus ATCC 29970 [8]: 250 ng/mL (≈ 0.642 µM); MIC S. pneumoniae ATCC 6301 (S. pneumoniae ATCC 6301): > 32000 ng/mL; Survival (MRSA ATCC33591; 3 mg/kg body weight i.v., 5 doses, mortality observed for 7 days): 65%; Survival (MRSA ATCC33591; 10 mg/kg body weight i.v., 5 doses, mortality observed for 7 days): 100%; Survival (MRSA ATCC33591; 30 mg/kg body weight i.v., 5 doses, mortality observed for 7 days): 100% |
| CCC1(CC)C(=O)Nc2ncc(/C=C/C(=O)N(C)Cc3cc4ccccc4n3C)cc21 [VT-02-00064, (E)-3-(3,3-diethyl-2-oxo-2,3-dihydro-1H-pyrrolo[2,3-b]pyridin-5-yl)-N-methyl-N-((1-methyl-1H-indol-2-yl)methyl)acrylamide] | 120 ng/mL (≈ 0.288 µM) | 120 ng/mL (≈ 0.288 µM) | 1000 ng/mL | 18% | 30 ng/mL | 250 ng/mL | 1.4 µg·h/mL | 1.81 µg/mL | 3.57 L/h/kg | 0.44 h | 51.5% | – |
| CCC1(CC)C(=O)Nc2ncc(/C=C/C(=O)N(C)Cc3sc4ccccc4c3C)cc21 [VT-02-00078, (E)-3-(3,3-diethyl-2-oxo-2,3-dihydro-1H-pyrrolo[2,3-b]pyridin-5-yl)-N-methyl-N-((3-methylbenzo[b]thiophen-2-yl)methyl)acrylamide] | 15 ng/mL (≈ 0.0346 µM) | 15 ng/mL (≈ 0.0346 µM) | 250 ng/mL | 15% | < 2.98e-05 ng/mL | 1.91e-05 ng/mL | 1.41 µg·h/mL | – | 3.51 L/h/kg | 0.32 h | 67.1% | – |
| CCn1c(=O)[nH]c2ncc(/C=C/C(=O)N(C)Cc3cc4ccccc4n3C)cc21 [VT-02-00044, (E)-3-(1-ethyl-2-oxo-2,3-dihydro-1H-imidazo[4,5-b]pyridin-6-yl)-N-methyl-N-((1-methyl-1H-indol-2-yl)methyl)acrylamide] | 500 ng/mL (≈ 1.28 µM) | 1000 ng/mL (≈ 2.57 µM) | 2000 ng/mL | 50% | < 1.9 ng/mL | 15 ng/mL | 1.04 µg·h/mL | 0.949 µg/mL | 4.55 L/h/kg | 1.65 h | 29% | Survival (MRSA ATCC33591; 50 mg/kg body weight for 3 days, 2 doses per day): 100% |
| Cc1c(CN(C)C(=O)/C=C/c2cnc3c(c2)C2(CCCC2)C(=O)N3)sc2ccccc12 [VT-02-00074, (E)-N-methyl-N-((3-methylbenzo[b]thiophen-2-yl)methyl)-3-(2′-oxo-1′,2′-dihydrospiro[cyclopentane-1,3′-pyrrolo[2,3-b]pyridine]-5′-yl)acrylamide] | 60 ng/mL (≈ 0.139 µM) | 60 ng/mL (≈ 0.139 µM) | 1000 ng/mL | 8% | 7.8 ng/mL | 60 ng/mL | – | – | – | – | – | – |
| Cc1c(CN(C)C(=O)/C=C/c2cnc3c(c2)C2(CCC2)C(=O)N3)oc2ccccc12 [VT-02-00092, (E)-N-methyl-N-((3-methylbenzofuran-2-yl)methyl)-3-(2′-oxo-1′,2′-dihydrospiro[cyclobutane-1,3′-pyrrolo[2,3-b]pyridine]-5′-yl)acrylamide] | 60 ng/mL (≈ 0.149 µM) | 60 ng/mL (≈ 0.149 µM) | 250 ng/mL | 22% | – | 3.9 ng/mL | – | – | – | – | – | – |
| CN(Cc1cc2ccccc2s1)C(=O)/C=C/c1cnc2c(c1)C(C)(C)C(=O)N2 [VT-02-00066, (E)-N-(benzo[b]thiophen-2-ylmethyl)-3-(3,3-dimethyl-2-oxo-2,3-dihydro-1H-pyrrolo[2,3-b]pyridin-5-yl)-N-methylacrylamide] | 500 ng/mL (≈ 1.28 µM) | 500 ng/mL (≈ 1.28 µM) | 4000 ng/mL | 29% | 7.8 ng/mL | 1000 ng/mL | – | – | – | – | – | – |
| Cc1c(CN(C)C(=O)/C=C/c2cnc3c(c2)C2(CCC2)C(=O)N3)c2ccccc2n1C [VT-02-00091, (E)-N-((1,2-dimethyl-1H-indol-3-yl)methyl)-N-methyl-3-(T-oxo-1′,2′-dihydrospiro[cyclobutane-1,3′-pyrrolo[2,3-b]pyridine]-5′-yl)acrylamide] | 15 ng/mL (≈ 0.0362 µM) | 15 ng/mL (≈ 0.0362 µM) | 120 ng/mL | 21% | – | 0.061 ng/mL | – | – | – | – | – | Mutation prevention concentration [5]: 0.06 µg/mL; MIC E. coli ATCC 25922 (E. coli ATCC 25922): > 16000 ng/mL; MIC E. feacalis ATCC 29212 (E. feacalis ATCC 29212): > 16000 ng/mL; MIC H. influenzae ATCC 49247 (H. influenzae ATCC 49247): > 16000 ng/mL; MIC M. catarrhalis ATCC 8176 (M. catarrhalis ATCC 8176): > 16000 ng/mL; MIC S. epidermidis ATCC 12228 [7]: 15 ng/mL (≈ 0.0362 µM); MIC S. haemolyticus ATCC 29970 [8]: 15 ng/mL (≈ 0.0362 µM); MIC S. pneumoniae ATCC 6301 (S. pneumoniae ATCC 6301): > 32000 ng/mL |
| CCC1(CC)C(=O)Nc2ncc(/C=C/C(=O)N(C)Cc3oc4ccccc4c3C)cc21 [VT-02-00071, (E)-3-(3,3-diethyl-2-oxo-2,3-dihydro-1H-pyrrolo[2,3-b]pyridin-5-yl)-N-methyl-N-((3-methylbenzofuran-2-yl)methyl)acrylamide] | 15 ng/mL (≈ 0.0359 µM) | 15 ng/mL (≈ 0.0359 µM) | 250 ng/mL | 12% | 0.000477 ng/mL | 0.06 ng/mL | 1.22 µg·h/mL | 1.55 µg/mL | 4.07 L/h/kg | 0.52 h | 26% | – |
| Cc1c(CN(C)C(=O)/C=C/c2cnc3c(c2)C2(CCC2)C(=O)N3)sc2ccccc12 [VT-02-00073, (E)-N-methyl-N-((3-methylbenzo[b]thiophen-2-yl)methyl)-3-(2′-oxo-1′,2′-dihydrospiro[cyclobutane-1,3′-pyrrolo[2,3-b]pyridine]-5′-yl)acrylamide] | 15 ng/mL (≈ 0.0359 µM) | 15 ng/mL (≈ 0.0359 µM) | 250 ng/mL | 11% | 0.00381 ng/mL | 0.97 ng/mL | 7.32 µg·h/mL | 4.38 µg/mL | 0.668 L/h/kg | 1.89 h | 38.5% | – |
